{"source": "patent US6200966A", "about": "“Compositions for inhibiting airway wall inflammation” (Amrad Operations Pty. Ltd., priority 1996, dated 2001)", "key": {"adherent monocytes": {"system": "adherent monocytes", "assay": "Tetramethyl benzidine oxidation in adherent monocytes", "format": "cell-based, human", "settings": "PMA (1 μM) or zymosan (400 μg/ml); 10 μM"}, "smooth muscle": {"system": "smooth muscle", "settings": "Goyache et al., 1995; cited from earlier work"}, "[1]": {"system": "human cultured airway smooth muscle cells", "assay": "Protein synthesis: [3H]-leucine incorporation", "format": "cell-based", "settings": "for activity at 0.3 µM / activity at 1 µM / activity at 3 µM / activity at 10 µM: mean ± SEM"}, "[2]": {"system": "endothelial cells and fibroblasts", "settings": "actively proliferating or non-quiescent; cited from earlier work"}, "[3]": {"system": "Human polymorphonuclear leukocytes", "assay": "Tetramethylbenzidine oxidation (myeloperoxidase release/activity) in leukocytes", "settings": "for Tetramethylbenzidine oxidation: 2-methoxyestradiol 3 μM"}, "[4]": {"system": "human cultured airway smooth muscle cells", "assay": "DNA synthesis: [3H]-thymidine incorporation", "format": "cell-based", "protocol": "(§1) Human bronchial airway smooth muscle was obtained from macroscopically normal lung resection specimens from lung transplant donors or recipients provided by the Alfred Hospital (Melbourne). Cultures were prepared as previously described in detail (Tomlinson et al., 1994). Briefly, the tissue was partially digested in Dulbecco's Modified Eagle's Medium (DMEM), [supplemented with 2 mM L-glutamine, 100 μg/ml streptomycin, 100 U/ml penicillin-G, 2 μg/ml amphotericin B, and 0.25% w/v bovine serum albumin (BSA)] containing 3 mg/ml collagenase for 30 minutes at 37° C. and approximately 0.5 g smooth muscle was further digested by a 2 hour incubation in 0.5 mg/ml elastase, followed by an 18 hour incubation in collagenase (3 mg/ml) at 37° C. Cell suspensions ere centrifuged (10 min, 100×g, 25° C.), washed three times in supplemented DMEM, resuspended in 25 ml DMEM containing 10% (v/v) heat-inactivated foetal calf serum (FCS), seeded into 25 cm^2 Falcon culture flasks and incubated (37° C., 5% CO2) for 7 to 10 days until monolayer confluence was reached. Cells were then harvested weekly by 10 min exposure to 0.5% trypsin, 1 mM EDTA and passaged at a 1:3 split ratio into 75 cm^2 Falcon culture flaskes. Cells at passage numbers 3 to 15 were used for experiments.\n(§2) Cells were subcultured into 24-well plates at a 1:3 ratio and allowed to grow to monolayer confluency over a 72-96 hour period in an atmosphere of 5% CO2 in air at 37° C. The serum-containing medium was replaced with serum-free DMEM for a 24 hour period to produce growth arrest. In some experiments, the cells were pretreated with 2-methoxyestradiol 30 min before the addition of mitogen. The stimulant (mitogen) was added to the appropriate wells together with a supplement containing insulin, transferrin, and selenium (Monomed A, 1% v/v). Monomed A was added to provide progression factors which are essential for the mitogenic activity of growth factors such as thrombin, epidermal growth factor (EGF) and basic fibroblast growth factor (bFGF) (Stewart et al., 1995a). Mitogens and inhibitors were left in contact with cells from the time of addition until the end of the experiment, unless indicated otherwise. Cells were incubated for 24 hours (37° C., 5% CO2) before being pulsed with [^3 H]-thymidine (1 μCi/ml for four hours) to measure incorporation of radiolabel into newly synthesized DNA, according to out previous study (Stewart et al., 1995). Incorporation of radioactivity was determined by filtration at the end of the pulse-labelling period. The medium containing the radioactivity was aspirated and the cells were lysed by addition of 200 μl of 0.1M NaOH. The DNA was immobilised by filtration in a binding harvester (Packard Filtermate 196) on glass fibre filters (Packard, standard), which were then washed with 3×3 ml volumes of distilled water and a single 1 ml volume of 100% ethanol. The dried filters were counted in a Packard Topcount liquid scintillation counter. Protein synthesis rates were determined in experiments of analogous design to those described above, but [^3 H]-leucine replaced [^3 H]-thymidine in the pulsing incubation of 4 hours. Furthermore, in experiments to determine the effects of mitogens and 2-methoxyestradiol on the rate of protein synthesis, incubations with mitogen were carried out for a period of 48 hours. The longer duration of these experiments was required to allow sufficient time for cell division to occur.\n(§3) Each treatment in an individual experiment was carried out in quadruplicate for DNA and protein synthesis experiments. Each experiment was performed in at least three different cultures obtained from three different individuals. For cell counting, single incubations were carried out in three cultures. Results are presented as grouped data from multiple cultures and are expressed as mean ±S. E. of n cultures. The degree of increment was calculated by dividing the response of treated wells by that of the control wells on the same 24-well plate."}, "[5]": {"system": "guinea-pig peritoneal macrophages", "assay": "Superoxide anion release in peritoneal macrophages", "format": "cell-based", "settings": "10 μM", "protocol": "Guinea-pig peritoneal macrophages were harvested and cultured according to out previous studies (Stewart & Phillips, 1989). Cells were incubated with stimuli including the chemotactic tripeptide, formyl methiony leucyl Phenylalanine (fMLP, 100 nM), Zymosan (400 μg/ml) or phorbol myristate acetate (PMA, 100 nM) for 30 min in the presence or absence of 2-methoxyestradiol (10 μM) added 15 min before the stimuli. […] All individual incubations were carried out in duplicate and experiments were carried out in macrophages from 5 guinea-pigs."}, "horseradish peroxidase": {"system": "horseradish peroxidase", "assay": "Oxidation of tetramethyl benzidine by purified horseradish peroxidase", "format": "biochemical", "settings": "10 μM"}, "[6]": {"system": "human cultured airway smooth muscle cells", "assay": "Protein synthesis: [3H]-leucine incorporation", "format": "cell-based", "settings": "for 5HT-stimulated increase in protein synthesis: 5HT 10 nM, 0.3-10 μM", "protocol": "as §1, §2, §3"}, "tubulin": {"system": "tubulin", "settings": "literature; cited from earlier work"}, "[7]": {"system": "cultured smooth muscle cells from rabbit aorta", "settings": "Nishigaki et al., 1995; cited from earlier work"}, "[8]": {"settings": "Homo sapiens, 5HT (10 nM)-stimulated cells"}, "[9]": {"settings": "Homo sapiens, unstimulated cells"}, "[10]": {"settings": "3 μM, thrombin, additional time points"}}, "note": "“Also recorded” adds a separate entry of the source.", "data": [{"smiles": "COc1cc2c(cc1O)CC[C@@H]1[C@@H]2CC[C@]2(C)[C@@H](O)CC[C@@H]12", "note": "[2-methoxyestradiol, 1,3,5[10]-estratriene-2,3,17-triol 2-methylether]", "values": [{"measurement": "oxidation of tetramethyl benzidine in adherent monocytes", "setting": "adherent monocytes", "result": "unaffected"}, {"measurement": "calcium influx into smooth muscle", "setting": "smooth muscle", "result": "decrease calcium influx"}, {"measurement": "[3H]-leucine incorporation at 10 μM", "setting": "[1]; 10 μM, thrombin or bFGF", "result": "no significant inhibitory effect"}, {"measurement": "activity at 0.3 µM", "setting": "[1]; [8]", "result": "91 ± 5", "unit": "%"}, {"measurement": "activity at 1 µM", "setting": "[1]; [8]", "result": "62 ± 2", "unit": "%"}, {"measurement": "activity at 3 µM", "setting": "[1]; [8]", "result": "56 ± 2", "unit": "%"}, {"measurement": "activity at 10 µM", "setting": "[1]; [8]", "result": "51 ± 6", "unit": "%"}, {"measurement": "activity at 0.3 µM", "setting": "[1]; [9]", "result": "135 ± 3", "unit": "%"}, {"measurement": "activity at 1 µM", "setting": "[1]; [9]", "result": "84 ± 4", "unit": "%"}, {"measurement": "activity at 3 µM", "setting": "[1]; [9]", "result": "77 ± 3", "unit": "%"}, {"measurement": "activity at 10 µM", "setting": "[1]; [9]", "result": "113 ± 9", "unit": "%"}, {"measurement": "inhibition at 3 µM", "setting": "[1]; Homo sapiens, at 3 μM, thrombin, FCS 1% or bFGF, read-out: maximum percentage reduction of [3H]-leucine incorporation", "result": "~30", "unit": "%"}, {"measurement": "minimal effective concentration", "setting": "[1]; Homo sapiens, thrombin (0.3 U/ml), FCS (1% v/v) or bFGF (300 pM), 48 h, read-out: threshold concentration for inhibition of [3H]-leucine incorporation", "result": 1, "unit": "µM"}, {"measurement": "[3H]-leucine incorporation, compound alone, 10 μM", "setting": "[1]; unstimulated, 10 μM", "result": "no effect"}, {"measurement": "[3H]-leucine incorporation, compound alone, 1 and 3 μM", "setting": "[1]; unstimulated, 1 and 3 μM", "result": "small inhibitory effects"}, {"measurement": "proliferation of endothelial cells and fibroblasts", "setting": "[2]", "result": "inhibits proliferation"}, {"measurement": "oxidation of tetramethyl-benzidine in leukocytes", "setting": "[3]; 3 μM, zymosan (400 μg/ml) or fMLP stimulated", "result": "reduced oxidation of tetramethyl-benzidine"}, {"measurement": "Tetramethylbenzidine oxidation", "setting": "[3]; control (no stimulus), 2×10^6 PMN in 0.5 ml", "result": "-0.004 change in absorbance value"}, {"measurement": "Tetramethylbenzidine oxidation", "setting": "[3]; fMLP 100 nM (basal 0.057)", "result": "0.028 change in absorbance value"}, {"measurement": "Tetramethylbenzidine oxidation", "setting": "[3]; zymosan 400 μg/ml (basal 0.26)", "result": "0.013 change in absorbance value"}, {"measurement": "myeloperoxidase activity in cell-free supernatants", "setting": "[3]; fMLP stimulated leukocytes, highest concentration 10 μM", "result": "reduced only by the highest concentration"}, {"measurement": "release of myeloperoxidase from polymorphonuclear leukocytes", "setting": "[3]; human peripheral blood", "result": "inhibits the release of myeloperoxidase"}, {"measurement": "DNA synthesis, addition at 18 hours or later after thrombin", "setting": "[4]; 3 μM, thrombin 0.3 U/ml", "result": "no effect"}, {"measurement": "time of addition after thrombin giving maximum inhibition", "setting": "[4]; 3 μM, thrombin 0.3 U/ml, first time-course", "result": 2, "unit": "h"}, {"measurement": "thrombin-stimulated DNA synthesis, addition up to 4 h after thrombin", "setting": "[4]; 3 μM, thrombin 0.3 U/ml, time-course", "result": "inhibited"}, {"measurement": "persistence of significant inhibition after thrombin addition", "setting": "[4]; [10]", "result": "up to 6 hours"}, {"measurement": "time of addition giving the highest level of activity", "setting": "[4]; [10]", "result": "either simultaneously or 1 hour after thrombin"}, {"measurement": "relative potency among analogues examined", "setting": "[4]; DNA synthesis", "result": "most potent of the analogues examined"}, {"measurement": "DNA synthesis in the presence of EGF or 10% FCS", "setting": "[4]; EGF 3 nM or 10% FCS, relative to thrombin, bFGF, lower FCS", "result": "inhibited to a significantly lesser extent"}, {"measurement": "FCS (1%)-stimulated DNA synthesis, 10 μM", "setting": "[4]; FCS 1%, 10 μM", "result": "inhibition was observed at 10 μM; also recorded: equivalent to 2-methoxyestradiol (10 μM)"}, {"measurement": "FCS (1%)-stimulated DNA synthesis, lower concentrations", "setting": "[4]; FCS 1%, lower concentrations", "result": "enhanced"}, {"measurement": "inhibition with FCS (10%)", "setting": "[4]; FCS 10%", "result": "significantly less inhibited"}, {"measurement": "inhibition at 3 µM", "setting": "[4]; Homo sapiens, 3 μM, thrombin 0.3 U/ml, read-out: inhibition of DNA synthesis, addition between 4 and 14 hours after thrombin", "result": "~20", "unit": "%"}, {"measurement": "activity at 10 µM", "setting": "[4]; Homo sapiens, thrombin 0.3 U/ml, 10 μM, read-out: response to thrombin ([3H]-thymidine), remaining", "result": "~10", "unit": "%"}, {"measurement": "concentration-response of enhancement of thrombin-stimulated DNA synthesis", "setting": "[4]; thrombin", "result": "bell-shaped concentration-response curve"}, {"measurement": "enhancement of thrombin-stimulated DNA synthesis, 10 μM", "setting": "[4]; thrombin 0.3 U/ml, 10 μM", "result": "level of enhancement declined at 10 μM"}, {"measurement": "thrombin-stimulated incorporation of [3H]-thymidine", "setting": "[4]; thrombin 0.3 U/ml, 0.3-10 μM, 30 min pretreatment", "result": "concentration-dependentreduction"}, {"measurement": "thrombin-stimulated DNA synthesis (analogues)", "setting": "[4]; thrombin 0.3 U/ml, up to 3 μM", "result": "enhanced thrombin-stimulated DNA synthesis"}, {"measurement": "superoxide anion response of macrophages, PMA", "setting": "[5]; PMA (100 nM)", "result": "unaffected"}, {"measurement": "superoxide anion response of macrophages, fMLP", "setting": "[5]; fMLP (100 nM)", "result": "reduced"}, {"measurement": "superoxide anion response of macrophages, zymosan", "setting": "[5]; zymosan (400 μg/ml)", "result": "reduced; also recorded: completely blocked"}, {"measurement": "oxidation of tetramethyl benzidine by purified horseradish peroxidase", "setting": "horseradish peroxidase", "result": "lack of effect; also recorded: no effect"}, {"measurement": "5HT-stimulated increase in protein synthesis", "setting": "[6]", "result": "decreased"}, {"measurement": "5HT-stimulated increase in protein synthesis", "setting": "[6]; listed as 2-methoxyoestradiol", "result": "inhibited"}, {"measurement": "[3H]-leucine incorporation, compound alone, 0.3 μM", "setting": "[6]; unstimulated, 0.3 μM", "result": "small stimulation"}, {"measurement": "microtubule disruption / tubulin polymerisation", "setting": "tubulin", "result": "microtubule disruption via binding at the colchicine site on tubulin"}, {"measurement": "proliferation of rabbit aorta smooth muscle cells", "setting": "[7]", "result": "anti-proliferative effects"}]}]}
